# Literature values, collected in patent publication US11759493B2, “Composition for the treatment of constipation” (NEILOS S.R.L., priority 2017, dated 2023).
# What was measured:
# [1] = patients affected by constipation, meta-analysis
# [2] = 10 g, versus placebo, healthy individuals
# [3] = 20 and 40 g per day, both study groups
structure (smiles),measurement,setting,value
"OC[C@@H](O)[C@@H](O[C@@H]1O[C@H](CO)[C@H](O)[C@H](O)[C@H]1O)[C@H](O)[C@@H](O)CO [lactitol, 4-O-β-D-galactopyranosyl-D-glucitol]",percentage of people involved in the studies affected by diarrhea,20 g of active ingredient,5-20%
same,diarrhea,dosage of 10 g per day,absence of diarrhea
same,evacuation frequency and feces consistency,[1],increase the evacuation frequency and the feces consistency
OC[C@H]1O[C@@H](O[C@@H]2[C@@H](CO)OC(O)(CO)[C@H]2O)[C@H](O)[C@@H](O)[C@H]1O (mixture of isomers) [lactulose],transit in the small intestine,[2],accelerating effect
same,"frequency, volume and weight of feces",[3],significant increase
